Results published in patent US4959359A, “Phenyl-thiazepinones as calcium regulating agents” (Hoffmann-La Roche Inc., priority 1989, dated 1990).
Structures can show the parent of a compound that is named as a salt.

Test system: isolated rat aortic strips
Experiment: Contraction of rat aortic strips: inhibition of Ca++-induced contracture (calcium channel blocking activity)
Format: cell-based
Settings: for inhibition at 0.3 µM: Rattus norvegicus, read-out: % Inhibition (contractile response at 2 mM Ca++ as compared to the control), heading: % Inhibition, 3×10^-7 M, 15 minutes prior to and during the calcium curve, depolarizing K+ 45 mM, diltiazem n = 10, A-D n = 1
Description: The calcium channel blocking activity of compounds of formula I was determined by measuring the effect of compounds of formula I on isolated rat aortic strips.
Aortas were excised from rats, placed in Krebs-Henseleit solution, modified so as to be calcium free, with a depolarized level of potassium (45 mM), and 0.02 mM EDTA. The aorta was then helically cut into a strip about 2 mm wide. This strip was then divided into four equal segments about 15 mm in length, which were hung in isolated tissue chambers, attached to the appropriate tranducers and subjected to 500 mg basal tension. After a period of stabilization under these conditions, calcium was introduced into the bath and the tissues contracted in a concentration dependent manner.
When no calcium is available in the bathing media, and the potential dependent calcium channels are opened by the high potassium level, contractility is dependent on the level of calcium introduced into the bath. By adding increments of calcium into the bath, a reproducible concentration-dependent contracture can be obtained. Treatment with a calcium channel blocker, such as diltiazem, or a compound of the invention results in an inhibition of this contractile response.
Each number in the table below was derived by first adding calcium alone to tissue and measuring contracture, and then adding calcium to tissue that had been exposed to 3×10^-7 M of the compound to be tested and measuring contracture. The number for untreated controls was derived by measuring contracture for two runs where calcium alone was added.
A compound tested was placed in the bath at 3×10^-7 M for 15 minutes prior to, and during the acquisition of the concentration-dependent curve to calcium for that particular compound. The inhibition in contractile response at 2 mMCa++ was measured as a per cent inhibition as compared to the control. The effects on the 2 mM Ca++ contracture are as follows:
That is, compound A inhibited almost three quarters of the contracture observed for the control at 2 mM Ca++. As used above, compounds A, B, C, and D are as follows: […]

## COc1ccc([C@@H]2SC(c3ccccc3)=C(C)N(CCN(C)C)C(=O)[C@@H]2OC(C)=O)cc1 [Compound B, (+)-cis-6-(acetyloxy)-6,7-dihydro-7-(4-methoxyphenyl)-3-methyl-4-[2-dimethylamino)ethyl]-2-phenyl-1,4-thiazepin-5(4H)-one [S-(R*,R*)]-2,3-dihydroxybutanedioic acid hydrate]
  inhibition at 0.3 µM: 88.3%

## COc1ccc([C@H]2SC(c3ccccc3)=C(C)N(CCN(C)C)C(=O)[C@H]2OC(C)=O)cc1 (racemic) [Compound A, cis-rac.-6-(acetyloxy)-6,7-dihydro-7-(4-methoxyphenyl)-3-methyl-4-[2-(dimethylamino)ethyl]-2-phenyl-1,4-thiazepin-5(4H)-one (E)-2-butenedioate]
  inhibition at 0.3 µM: 73.4%

## COc1ccc([C@H]2SC(c3ccccc3)=C(C)N(CCN(C)C)C(=O)[C@H]2OC(C)=O)cc1 [C, (-)-cis-6-(acetyloxy)-6,7-dihydro-7-(4-methoxyphenyl)-3-methyl-4-[2-dimethylamino)ethyl]-2-phenyl-1,4-thiazepin-5(4H)-one [R-(R*,R*)]-2,3-dihydroxybutanedioic acid sesquihydrate]
  inhibition at 0.3 µM: 3.8%

## COc1ccc([C@@H]2SC(c3ccccc3)=C(C)N(CCN(C)C)C(=O)[C@H]2OC(C)=O)cc1 (relative stereo) [D, trans-rac.-6-(acetyloxy)6,7-dihydro-7-(4-methoxyphenyl)-3-methyl-4-[2-dimethylamino)ethyl]-2-phenyl-1,4-thiazepin-5(4H)-one hydrochloride]
  inhibition at 0.3 µM: 13.4%

## COc1ccc([C@@H]2Sc3ccccc3N(CCN(C)C)C(=O)[C@@H]2OC(C)=O)cc1 [Diltiazem, reference compound]
15 minute exposure at 3×10^-7 M
  responsiveness to 2 mM Ca++: marked reduction in responsiveness
  inhibition at 0.3 µM: 71.1%
